A short description of series [1]: Pharmacokinetic properties of CGRP and analogues, plasma level by CGRP ELISA. The class given is in vivo. The following applies: male, Sprague Dawley, rat, sc, SD rats, single s.c. injection, Analog alpha1 151 nmol/kg, Analogue beta1 231 nmol/kg. On the procedure:
Male Sprague Dawley rats (n=24) weighing approximately 250 g were used for the combined pharmacokinetic (T½, Cmaxetc.) and pharmacodynamic (GLP-1 release) study. The rats were divided in 4 groups with n=6 rats per group. The rats were treated with a single subcutaneous injection (1 ml/kg) of vehicle, alpha-CGRP (138 nmol/kg), Analogue beta1 (231 nmol/kg) or Analog alpha1 (151 nmol/kg). Blood (200 μl) was sampled from vena sublingualis from unanaesthetised rats pre-dose and at 0.5, 1, 3, 7 and 24 hours post dosing. Blood was collected in tubes containing EDTA. The samples were kept on ice and centrifuged. The plasma was kept at −20° C. until analysis for CGRP analog and total GLP-1.
A commercial available kit (Human CGRP ELISA, cat. #A05481, SPIbio) was used for monitoring the plasma levels of CGRP-analogues. Briefly, the assay was a two-sited enzyme-linked immuno sorbent assay (ELISA) using two antibodies against human CGRP. A monoclonal antibody was immobilized to the surface of micro plate wells. Five micro liter of plasma samples or calibrators were applied to the appropriate wells and incubated for 2 hours together with 100 μL buffer and 100 μL AChE-conjugated Fab′ fragment. […] The color intensity was determined by spectrophotometer at 405 nm. […] The lower limit of quantification of the modified CGRP assay was approximately 750 pM and the imprecision was (% CV)<10%.

The target of series [2] is CGRP receptor (calcitonin receptor-like receptor (CRLR), receptor activity modifying protein-1 (RAMP1)) (Homo sapiens, UniProt O60894+Q16602). Nature of the series: CGRP-induced cAMP accumulation in CGRP receptor expressing cells (CHO, CRE luciferase reporter). The class given is cell-based. On the procedure:
Chinese hamster ovary (CHO) cells were stably transfected with calcitonin receptor-like receptor (CRLR), receptor activity modifying protein-1 (RAMP1) and CRE luciferase (cAMP responsive element for control of luciferase gene expression). Luciferase is a reporter-gene reporting accumulation of intracellular cAMP).
Cells were cultured in F12 media supplemented with GlutaMAX™ (Gibco cat no 31765-027), FBS (10%, Gibco 16140-071), Penicillin-streptomycin (1%, Lonza DE-17-602E), G418 (400 μg/ml, Gibco 10131-027), Blasticidine (10 μg/ml, Corning cat no 15205), Hygromycin (400 μg/ml, Calbiochem cat no 400052).
Cells were seeded in a 96 well plate (Packard #6005180), 20000 cells/well in 100 μl media on the day before experimentation. On the day of experimentation media was replaced by assay medium (Dulbecco's media w/o phenol red (Gibco cat no 11880-028) supplemented with 10% FBS (10%, Gibco 16140-071), Hepes (10 mM, Gibco cat no 15630), GlutaMAX™ (2 mM, Gibco cat no 35050), 50 μl/well.
Peptides were diluted in assay media before added to cells for stimulation, 50 μl/well.
Cells were incubated 5% CO2, 37° C. for 4 hours.
Assay medium and peptides were replaced by phosphate buffered saline (PBS, Gibco cat no 14040-091), 100 μl/well and LucLite™ (PerkinElmer, cat no 6076759), 100 μl/well were added. The plate was sealed before incubation for 30 min at room temperature (21° C.). Luciferase activity (luminescens, 7 s/well) was measured (TopCount®, NXT, Packard).
Dose-response curves were fitted by use of GraphPad Prism software and pEC50 values were calculated. Data were given as mean±SEM, n=2 and each analogue was tested twice.
(In general: Changes in cAMP serve as a functional read-out for many G protein-coupled receptors.)

The nature of series [3]: CGRP-induced reduction in food intake by automatic food intake measurements (FeedWin). The series is classed as in vivo, Sprague Dawley (SD) rats. The following applies: SD rats, s.c., monitored for 48 hours, FIG. 4. The source says:
Upon arrival male Sprague Dawley (SD) rats were housed two per cage with a dividing wall between them. They were housed at reversed diurnal rhythm and with environmental enrichment. The rats were acclimatized to reversed diurnal rhythm for at least 1 week before being transferred to the experimental system cages (single housed). They were acclimatized to the experimental system cages for an additional 5-6 days before start of the experiment. The rats had ad libitum access to food (Altromin 1324) and water during acclimatization periods.
One day before start of the study the rats were divided in three or four groups (n=5-8) based on body weight (250-300 g).
16 hours before start of the study the rats were fasted. Food was returned in connection with dosing. The rats received a single injection subcutaneously (s.c., 1 ml/kg) with vehicle or CGRP analogue. Intraperitoneally dosing (i.p., 1 ml/kg) was used in the first experiment of the al analogue. The effect of analogues on food and water consumption was examined in a “FeedWIN” system (Ellegaard Systems A/S, Faaborg, Denmark). The system contained 32 stations. In each station the continuous water and food consumption for a single rat was recorded.
A station consisted of a cage with metal lid and two scales placed on each side of the cage. […] Data was collected each 15 minutes and up to 48 hours and expressed as accumulated food intake (Mean±SEM).

As a reminder, the Cmax is the highest concentration seen after dosing. The EC50 is the midpoint of the concentration-response curve.

Chain of CGRP receptor (calcitonin receptor-like receptor (CRLR), receptor activity modifying protein-1 (RAMP1)) (Q16602 23-461, species assumed): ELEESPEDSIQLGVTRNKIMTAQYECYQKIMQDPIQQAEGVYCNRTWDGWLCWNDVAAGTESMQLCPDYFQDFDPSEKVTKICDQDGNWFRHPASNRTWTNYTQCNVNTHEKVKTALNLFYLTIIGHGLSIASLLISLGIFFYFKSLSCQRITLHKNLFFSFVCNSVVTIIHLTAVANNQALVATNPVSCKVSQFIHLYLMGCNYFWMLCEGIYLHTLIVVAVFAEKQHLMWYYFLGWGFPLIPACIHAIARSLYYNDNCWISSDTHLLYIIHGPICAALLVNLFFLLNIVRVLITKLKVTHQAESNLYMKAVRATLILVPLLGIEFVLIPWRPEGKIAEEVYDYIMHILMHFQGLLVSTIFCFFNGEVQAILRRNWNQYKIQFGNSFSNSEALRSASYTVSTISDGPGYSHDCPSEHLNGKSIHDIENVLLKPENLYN
Chain of CGRP receptor (calcitonin receptor-like receptor (CRLR), receptor activity modifying protein-1 (RAMP1)) (O60894 27-148, species assumed): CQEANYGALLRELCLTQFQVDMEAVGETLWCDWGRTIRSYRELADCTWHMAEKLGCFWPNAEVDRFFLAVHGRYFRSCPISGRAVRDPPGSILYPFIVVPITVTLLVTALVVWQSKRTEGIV

Compound `CC(C)C[C@H](NC(=O)CNC(=O)[C@H](C)NC(=O)[C@H](CC(C)C)NC(=O)[C@H](CCCNC(=N)N)NC(=O)[C@H](Cc1c[nH]cn1)NC(=O)[C@@H](NC(=O)[C@@H](NC(=O)[C@@H]1CSSC[C@H](NC(=O)[C@H](CO)NC(=O)COCCOCCNC(=O)CC[C@H](NC(=O)CCCCCCCCCCCCCCCCC(=O)O)C(=O)O)C(=O)N[C@@H](CC(=O)O)C(=O)N[C@@H]([C@@H](C)O)C(=O)N[C@@H](C)C(=O)N[C@@H]([C@@H](C)O)C(=O)N1)C(C)C)[C@@H](C)O)C(=O)N[C@@H](CC(C)C)C(=O)N[C@@H](CO)C(=O)N[C@@H](CCCNC(=N)N)C(=O)N[C@@H](CO)C(=O)NCC(=O)NCC(=O)N[C@H](C(=O)N[C@H](C(=O)N[C@@H](CCCCN)C(=O)N[C@@H](CC(N)=O)C(=O)N[C@@H](CC(N)=O)C(=O)N[C@@H](Cc1ccccc1)C(=O)N[C@H](C(=O)N1CCC[C@H]1C(=O)N[C@H](C(=O)N[C@@H](CC(N)=O)C(=O)N[C@H](C(=O)NCC(=O)N[C@@H](CO)C(=O)N[C@@H](CCCCN)C(=O)N[C@@H](C)C(=O)N[C@@H](Cc1ccccc1)C(N)=O)C(C)C)[C@@H](C)O)C(C)C)C(C)C)C(C)C` [Analogue alpha 1, N-alpha-[2-(2-{2-[(S)-4-Carboxy-4-(17-carboxyheptadecanoylamino)butyrylamino]ethoxy}ethoxy)acetyl][Ser1]alpha-human CGRP peptide] gave a Cmax in series [1] of 250 nM. In addition, the half-life in series [1] (read-out: T½) was over 7 h. For the same compound, the EC50 in series [2] came out at 0.09 nM.

Take “N-alpha-[2-(2-{2-[(S)-4-Carboxy-4-(17-carboxyheptadecanoylamino)butyrylamino]ethoxy}ethoxy)acetyl][Ser1]beta-human CGRP peptide [Analogue beta 1]”: in series [3], the accumulated food intake entry is given as “Reduction in accumulated food intake”.

The values above are taken from patent US8835379B2, “Derivatives of CGRP” (Novo Nordisk A/S, priority 2009, dated 2014).
